From patent publication US7217735B1, “Methods and compositions for enhancing delivery of therapeutic agents to tissues” (priority 1999, dated 2007)

Legend:
[1] = test system: patient head and neck tumors; test: Paclitaxel uptake in tumor histocultures
Method: (§1) The specimens were washed with culture medium for three times and dissected into about 1 mm^3 fragments under sterile conditions. The culture medium consisted of a 1:1 mixture of MEM/DMEM for patient tumors, MEM for FaDu xenografts, and RPMI1640 for PC3 xenografts, supplemented with 9% heat-inactivated FBS, 2 mM glutamine, 0.1 mM non-essential amino acids (only for MEM/DMEM), 90:g/ml gentamicin and 90:g/ml cefotaxime sodium. Five histoculture fragments were placed on a 1 cm^2 piece of presoaked collagen gel and incubated with 4 ml culture medium in 6-well plates. After 2 to 4 days, tumor histocultures were used to study the kinetics of drug penetration.
This study was performed using head and neck tumors from human patients and the human pharynx FaDu xenograft tumors maintained in athymic mice.
(§2) At predetermined times, 100 μl of medium was taken from each well and the histocultures were removed from the plates. The histocultures were blot-dried on a filter paper and their weights were measured. One hundred 1 of medium or tumor samples were mixed with 0.5 ml of Solvable tissue/gel solubilizer, incubated at 50° C. in an oven overnight, and analyzed for total radioactivity using liquid scintillation counting. […] Drug concentration in tissue was calculated as (drug amount) divided by (tissue weight) and was expressed in molar terms.
(§3) The study design of experiments using patient tumors was dictated by the size of the specimens. On some occasions, specimens from an individual patient were only sufficient to study drug uptake and efflux at one or more but not all drug concentrations. A total of 7 head and neck tumors and 3 ovarian tumors were used. For the FaDu xenograft tumor, specimens from individual animals were sufficiently large that each tumor was used for studying uptake and efflux at all four drug concentrations.
(§4) The statistical significance of the differences among patient (head and neck and ovarian, n=6) and FaDu (n=3) tumors, at equal initial medium concentrations, were analyzed by the two-tailed unpaired Student's t-test.

FaDu tumor histocultures = test: Apoptotic fraction and cell density with or without apoptosis-inducing pretreatment, in vitro; format: cell-based, human; set-up: Cell density: unit not given here
Method: Drug treatment was as previously described.
Two studies were performed.

[2] = test system: FaDu xenograft tumor histocultures; test: [3H]paclitaxel penetration by autoradiography; format: in vitro ADME, human; conditions: 120 nM
Method: The autoradiographic method was as described previously (Lesser G J et al. (1995) Cancer Chemother Pharmacol 37:173–178). […] Tissue samples were mounted on cryostat chucks with embedding matrix (O.C.T. Compound, Miles Inc., Ellchart, Ind.) and cut into 10 μm thick sections in a cryostat at −20° C. […] The slides containing the tissue sections were placed against tritium-sensitive film (Ultrofilm) in an X-ray cassette and exposed for one to two weeks at room temperature. The films were developed for 3–5 minutes at room temperature (D-19 Developer), placed in a stop bath for 30 seconds, immersed in fixer for 3 minutes and exposed to running room temperature water for 15 minutes. The films were then rinsed in Photo-flo 200 and allowed to air-dry. Separately, the tissue section slides were stained with hematoxylin and eosin.
The threshold for the autoradiographic image was adjusted to minimize the background signal.

[3] = test system: patient head and neck tumors; test: Paclitaxel efflux from tumor histocultures
Method: as §1, §2, §3
After replacing the drug-containing medium with drug-free medium, the drug concentration remaining in histocultures at 24 and 72 hours post-treatment were analyzed to determine the time to reach 50% of the pseudo steady state level (T1/2,efflux). The statistical significance of the differences among patient (head and neck and ovarian, n=6) and FaDu (n=3) tumors, at equal initial medium concentrations, were analyzed using a unpaired t-test.

patient ovarian tumors [4] = test: Paclitaxel uptake in tumor histocultures
Method: as §1, §2, §3, §4

[5] = test system: FaDu xenograft tumor histocultures; test: Apoptotic cell fraction in paclitaxel-treated histocultures (Example 1); format: cell-based, human
Method: The fractions of stromal tissue and tumor cells in each histoculture were measured using image analysis. Briefly, stromal and tumor cells of a 100× magnification field were outlined with the computer mouse. The sizes of each of these regions were determined via image analysis by counting the number of pixels in the region. […] Apoptotic cells were determined based on morphological changes in tumor cells such as chromatin condensation and margination, disappearance of nucleoli, formation of membrane blebs, apoptotic bodies and/or cell shrinkage (Kerr J F R et al. (1994) Cancer 73:2013). […] For each tumor piece, 50 to 100 images were processed, and the fractions of the tumor represented by tumor cells, stromal tissue, and interstitial space were calculated.

patient ovarian tumors [6] = test: Paclitaxel efflux from tumor histocultures; format: in vitro ADME, human
[7] = 10 nM [3H]paclitaxel, 4 hr, with pretreatment by 1:M nonradiolabeled paclitaxel
[8] = 10 nM [3H]paclitaxel, 4 hr, without pretreatment
[9] = 10 nM [3H]paclitaxel, 16 hr, with pretreatment by 1:M nonradiolabeled paclitaxel
[10] = 10 nM [3H]paclitaxel, 16 hr, without pretreatment
[11] = 10 nM [3H]paclitaxel, 24 hr, with pretreatment by 1:M nonradiolabeled paclitaxel
[12] = 10 nM [3H]paclitaxel, 24 hr, without pretreatment
[13] = 10 nM [3H]paclitaxel, 32 hr, with pretreatment by 1:M nonradiolabeled paclitaxel
[14] = 10 nM [3H]paclitaxel, 32 hr, without pretreatment
[15] = 10 nM [3H]paclitaxel, 48 hr, with pretreatment by 1:M nonradiolabeled paclitaxel
[16] = 10 nM [3H]paclitaxel, 48 hr, without pretreatment
[17] = 10 nM [3H]paclitaxel, 72 hr, with pretreatment by 1:M nonradiolabeled paclitaxel
[18] = 10 nM [3H]paclitaxel, 72 hr, without pretreatment
[19] = 50 nM [3H]paclitaxel, 4 hr, with pretreatment by 1:M nonradiolabeled paclitaxel
[20] = 50 nM [3H]paclitaxel, 4 hr, without pretreatment
[21] = 50 nM [3H]paclitaxel, 16 hr, with pretreatment by 1:M nonradiolabeled paclitaxel
[22] = 50 nM [3H]paclitaxel, 16 hr, without pretreatment
[23] = 50 nM [3H]paclitaxel, 24 hr, with pretreatment by 1:M nonradiolabeled paclitaxel
[24] = 50 nM [3H]paclitaxel, 24 hr, without pretreatment
[25] = 50 nM [3H]paclitaxel, 32 hr, with pretreatment by 1:M nonradiolabeled paclitaxel
[26] = 50 nM [3H]paclitaxel, 32 hr, without pretreatment
[27] = 50 nM [3H]paclitaxel, 48 hr, with pretreatment by 1:M nonradiolabeled paclitaxel
[28] = 50 nM [3H]paclitaxel, 48 hr, without pretreatment
[29] = 50 nM [3H]paclitaxel, 72 hr, with pretreatment by 1:M nonradiolabeled paclitaxel
[30] = 50 nM [3H]paclitaxel, 72 hr, without pretreatment
[31] = 50 nM x 24 hr, 24 hr after initiation of treatment
[32] = 50 nM x 24 hr, 36 hr after initiation of treatment
[33] = 600 nM x 1 hr, 23 hr later 50 nM x 12 hr, 24 hr after initiation of treatment
[34] = 600 nM x 1 hr, 23 hr later 50 nM x 12 hr, 36 hr after initiation of treatment
[35] = initial Cmedium 120 nM for 24 hr, at 24 hr post-treatment
[36] = initial Cmedium 120 nM for 24 hr, at 72 hr post-treatment
[37] = initial Cmedium 1,200 nM for 24 hr
[38] = initial Cmedium 1,200 nM for 24 hr, at 24 hr post-treatment
[39] = initial Cmedium 1,200 nM for 24 hr, at 72 hr post-treatment

CC(=O)O[C@H]1C(=O)[C@@]2(C)[C@H]([C@H](OC(=O)c3ccccc3)[C@]3(O)C[C@H](OC(=O)[C@H](O)[C@@H](NC(=O)c4ccccc4)c4ccccc4)C(C)=C1C3(C)C)[C@]1(OC(C)=O)CO[C@@H]1C[C@@H]2O [paclitaxel]
Mass balance ([1]; initial Cmedium 12 nM): 91.2 ± 3.5%
Steady state Cmedium ([1]; initial Cmedium 12 nM): 10.9 ± 1.0 nM
Mass balance ([1]; initial Cmedium 120 nM): 83.8 ± 7.6%
Steady state Cmedium ([1]; initial Cmedium 120 nM): 83.0 ± 0.7 nM
Steady state Ctumor ([1]; initial Cmedium 120 nM): 5.77 ± 1.52 :M
Mass balance ([1]; initial Cmedium 1,200 nM): 87.5 ± 6.5%
Steady state Cmedium ([1]; initial Cmedium 1,200 nM): 925 ± 25 nM
Steady state Ctumor ([1]; initial Cmedium 1,200 nM): 22.0 ± 6.2 :M
Mass balance ([1]; initial Cmedium 12,000 nM): 91.5 ± 3.5%
Steady state Cmedium ([1]; initial Cmedium 12,000 nM): 9,870 ± 59 nM
Steady state Ctumor ([1]; initial Cmedium 12,000 nM): 341 ± 125 :M
Apoptotic fraction (FaDu tumor histocultures; [7]): 23.6 ± 1.3%
Cell density (FaDu tumor histocultures; [7]): 64.2 ± 3.5
Apoptotic fraction (FaDu tumor histocultures; [8]): 3.93 ± 0.87%
Cell density (FaDu tumor histocultures; [8]): 86.3 ± 4.0
Apoptotic fraction (FaDu tumor histocultures; [9]): 24.6 ± 4.8%
Cell density (FaDu tumor histocultures; [9]): 64.3 ± 1.8
Apoptotic fraction (FaDu tumor histocultures; [10]): 4.98 ± 0.84%
Cell density (FaDu tumor histocultures; [10]): 80.2 ± 2.9
Apoptotic fraction (FaDu tumor histocultures; [11]): 26.6 ± 2.4%
Cell density (FaDu tumor histocultures; [11]): 64.0 ± 5.2
Apoptotic fraction (FaDu tumor histocultures; [12]): 7.32 ± 1.80%
Cell density (FaDu tumor histocultures; [12]): 81.6 ± 2.5
Apoptotic fraction (FaDu tumor histocultures; [13]): 30.1 ± 3.4%
Cell density (FaDu tumor histocultures; [13]): 60.1 ± 4.2
Apoptotic fraction (FaDu tumor histocultures; [14]): 6.64 ± 1.07%
Cell density (FaDu tumor histocultures; [14]): 79.9 ± 2.1
Apoptotic fraction (FaDu tumor histocultures; [15]): 34.9 ± 5.2%
Cell density (FaDu tumor histocultures; [15]): 62.3 ± 3.1
Apoptotic fraction (FaDu tumor histocultures; [16]): 9.18 ± 1.31%
Cell density (FaDu tumor histocultures; [16]): 77.8 ± 3.0
Apoptotic fraction (FaDu tumor histocultures; [17]): 31.0 ± 4.4%
Cell density (FaDu tumor histocultures; [17]): 61.0 ± 2.2
Apoptotic fraction (FaDu tumor histocultures; [18]): 11.0 ± 1.7%
Cell density (FaDu tumor histocultures; [18]): 82.6 ± 2.2
Apoptotic fraction (FaDu tumor histocultures; [19]): 26.3 ± 5.4%
Cell density (FaDu tumor histocultures; [19]): 63.1 ± 4.5
Apoptotic fraction (FaDu tumor histocultures; [20]): 2.74 ± 0.12%
Cell density (FaDu tumor histocultures; [20]): 85.8 ± 3.6
Apoptotic fraction (FaDu tumor histocultures; [21]): 36.0 ± 3.9%
Cell density (FaDu tumor histocultures; [21]): 60.8 ± 4.9
Apoptotic fraction (FaDu tumor histocultures; [22]): 7.97 ± 2.03%
Cell density (FaDu tumor histocultures; [22]): 83.9 ± 3.3
Apoptotic fraction (FaDu tumor histocultures; [23]): 36.4 ± 2.0%
Cell density (FaDu tumor histocultures; [23]): 58.3 ± 1.1
Apoptotic fraction (FaDu tumor histocultures; [24]): 17.0 ± 2.8%
Cell density (FaDu tumor histocultures; [24]): 77.0 ± 3.8
Apoptotic fraction (FaDu tumor histocultures; [25]): 37.4 ± 4.5%
Cell density (FaDu tumor histocultures; [25]): 53.2 ± 2.1
Apoptotic fraction (FaDu tumor histocultures; [26]): 19.1 ± 2.5%
Cell density (FaDu tumor histocultures; [26]): 71.2 ± 4.6
Apoptotic fraction (FaDu tumor histocultures; [27]): 39.8 ± 3.1%
Cell density (FaDu tumor histocultures; [27]): 53.6 ± 2.4
Apoptotic fraction (FaDu tumor histocultures; [28]): 28.3 ± 2.9%
Cell density (FaDu tumor histocultures; [28]): 68.8 ± 2.5
Apoptotic fraction (FaDu tumor histocultures; [29]): 37.9 ± 3.4%
Cell density (FaDu tumor histocultures; [29]): 47.8 ± 3.2
Apoptotic fraction (FaDu tumor histocultures; [30]): 27.2 ± 3.0%
Cell density (FaDu tumor histocultures; [30]): 61.1 ± 2.8
Apoptotic fraction (FaDu tumor histocultures; [31]): 15.2%
Cell density (FaDu tumor histocultures; [31]): 71.3 ± 2.9
Apoptotic fraction (FaDu tumor histocultures; [32]): 17.0%
Cell density (FaDu tumor histocultures; [32]): 72.6 ± 3.2
Apoptotic fraction (FaDu tumor histocultures; [33]): 20.3 ± 4.3%
Cell density (FaDu tumor histocultures; [33]): 60.9 ± 1.3
Apoptotic fraction (FaDu tumor histocultures; [34]): 25.4 ± 3.4%
Cell density (FaDu tumor histocultures; [34]): 62.4 ± 4.2
apoptosis caused by pretreatment (FaDu tumor histocultures; 1,000 nM nonradiolabeled paclitaxel for 3 hr, at 24 hr, preliminary study): ~30%
cell layers penetrated ([2]; during the first 24 hours): 15 cell layers
cell layers penetrated ([2]; during the second 24 hours): > 80 cell layers
T1/2,efflux ([3]; initial Cmedium 120 nM for 24 hr): 7.45 ± 3.02 h
% remaining in tumor [3, 35]: 54.8 ± 3.1%
Cmedium [3, 35]: 1.13 ± 0.17 nM
Ctumor [3, 35]: 1.70 ± :M
% remaining in tumor [3, 36]: 43.3 ± 16.3%
Cmedium [3, 36]: 1.32 ± 0.14 nM
Ctumor [3, 36]: 1.19 ± 0.50 :M
T1/2,efflux [3, 37]: 3.33 ± 2.62 h
% remaining in tumor [3, 38]: 18.7 ± 6.2%
Cmedium [3, 38]: 7.69 ± 2.55 nM
Ctumor [3, 38]: 4.38 ± :M
% remaining in tumor [3, 39]: 16.0 ± 5.3%
Cmedium [3, 39]: 10.9 ± 1.1 nM
Ctumor [3, 39]: 4.17 ± 2.77 :M
Mass balance (patient ovarian tumors [4]; initial Cmedium 12 nM): 89.3 ± 5.4%
Steady state Cmedium (patient ovarian tumors [4]; initial Cmedium 12 nM): 10.6 ± 0.7 nM
Steady state Ctumor (patient ovarian tumors [4]; initial Cmedium 12 nM): 1.32 ± 0.31 :M
Mass balance (patient ovarian tumors [4]; initial Cmedium 120 nM): 84.5 ± 7.3%
Steady state Cmedium (patient ovarian tumors [4]; initial Cmedium 120 nM): 86.4 ± 2.3 nM
Steady state Ctumor (patient ovarian tumors [4]; initial Cmedium 120 nM): 2.86 ± 1.28 :M
Mass balance (patient ovarian tumors [4]; initial Cmedium 1,200 nM): 85.2 ± 2.5%
Steady state Cmedium (patient ovarian tumors [4]; initial Cmedium 1,200 nM): 870 ± 2.6 nM
Steady state Ctumor (patient ovarian tumors [4]; initial Cmedium 1,200 nM): 30.1 ± 11.7 :M
Mass balance (patient ovarian tumors [4]; initial Cmedium 12,000 nM): 93.3 ± 4.5%
Steady state Cmedium (patient ovarian tumors [4]; initial Cmedium 12,000 nM): 10,500 ± 920 nM
Steady state Ctumor (patient ovarian tumors [4]; initial Cmedium 12,000 nM): 211 ± 80 :M
fraction of apoptotic cells ([5]; 12 nM, remained relatively constant): ≥ 7%
fraction of apoptotic cells ([5]; 120 nM, at 24 hours): ~30%
fraction of apoptotic cells ([5]; 120 nM, at 72 hours): ~50%
% remaining in tumor (patient ovarian tumors [6]; [35]): 39.8 ± 14.2%
Cmedium (patient ovarian tumors [6]; [35]): 1.19 ± 0.24 nM
Ctumor (patient ovarian tumors [6]; [35]): 0.615 ± :M
% remaining in tumor (patient ovarian tumors [6]; [36]): 35.7 ± 18.5%
Cmedium (patient ovarian tumors [6]; [36]): 1.60 ± 0.26 nM
Ctumor (patient ovarian tumors [6]; [36]): 0.520 ± 0.196 :M
T1/2,efflux (patient ovarian tumors [6]; [37]): 5.00 ± 2.93 h
% remaining in tumor (patient ovarian tumors [6]; [38]): 25.9 ± 8.3%
Cmedium (patient ovarian tumors [6]; [38]): 12.8 ± 3.41 nM
Ctumor (patient ovarian tumors [6]; [38]): 5.13 ± :M
% remaining in tumor (patient ovarian tumors [6]; [39]): 19.8 ± 6.6%
Cmedium (patient ovarian tumors [6]; [39]): 16.7 ± 2.9 nM
Ctumor (patient ovarian tumors [6]; [39]): 4.20 ± 1.79 :M
